Among the data in PubChem BioAssay (NCI) are GI50 and TGI values, retold here.

Common to all, as to assay: NCI anticancer screen, dose series, 48 h
The subject of assay [1] is UACC-62 melanoma.
Assay [2] has as its system SK-MEL-28 melanoma.
In assay [3] the test system is SNB-75 CNS.
Assay [4] concerns HCT-15 colon.
For assay [5], the system named is M14 melanoma.
Assay [6] relates to MALME-3M melanoma.
For assay [7], the system named is RXF 393 renal.
Assay [8] concerns HCT-116 colon.
Assay [9] concerns NCI-H460 lung.
For assay [10], the system named is CCRF-CEM leukemia.

Structures are written as SMILES.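 Cells were grown in 96-well plates and exposed to each compound for 48 hours at five concentrations; endpoints were interpolated linearly between bracketing concentrations, or set to the highest concentration if not reached. Here, GI50 denotes the concentration required for 50% inhibition of growth. At the TGI there is no net growth.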 Where only a bound is given, the exact number is not on record here.

With `CC(=O)C1=C(O)C=C2Oc3c(C(=O)/C=C/c4cc(C(F)(F)F)cc(C(F)(F)F)c4)c(O)c(C)c(O)c3[C@]2(C)C1=O`, the GI50 is 0.436 µM in assay [1]; 0.747 µM in [2]; 2.1 µM in [3]; 0.462 µM in assay [4]; 0.612 µM in assay [5]; 0.513 µM in assay [6]. The GI50 in [7] was 0.673 µM; in assay [8] it was 0.401 µM; in [9] it was 0.521 µM; in assay [10], 0.487 µM. The TGI stood at 1.27 µM in assay [1]; 2.96 µM in [2]; 4.91 µM in [3]; 2.54 µM in [4]; 2.31 µM in assay [5]; 2.42 µM in assay [6]. For the same molecule, the TGI was found to be 3.08 µM in assay [7], 1.02 µM in assay [8], 1.9 µM in [9] and 3.82 µM in assay [10].

As to `C=C(CNC(=O)Nc1ccc(-c2ccccc2)cc1)c1ccc(C(=O)Nc2ccccc2N)cc1`, the GI50 was > 100 µM in assay [1]; 48.3 µM in assay [2]; 30.6 µM in assay [3]; 70.4 µM in [4]; 90.9 µM in assay [5]; 53.7 µM in assay [6]. Moreover, the GI50 is 23.7 µM in [7], > 100 µM in assay [8], > 100 µM in assay [9] and 7.32 µM in [10]. The TGI in assay [1] was > 100 µM; in [2] it was > 100 µM; in assay [3], 96.2 µM; in assay [4], > 100 µM; in [5], > 100 µM; in assay [6] it was > 100 µM. Besides, the TGI in [7] was 59 µM; in [8], > 100 µM; in assay [9] it was > 100 µM; in [10] it was > 100 µM.

As to `N#C/C(=C\c1ccccc1O)C(N)=O`, the TGI is > 100 µM in assay [1]; > 100 µM in assay [2]; 69.7 µM in [3]; > 100 µM in [4]; > 100 µM in assay [5]; > 100 µM in assay [6]. For the same molecule, the TGI in assay [7] is 87.5 µM; in [8] it was > 100 µM; in [9], > 100 µM; in [10], 83.1 µM.

Regarding `O=C(NCCCCCCCCNC(=O)c1cnc2ccccc2n1)c1cnc2ccccc2n1`, the TGI in assay [1], in assay [3], in assay [4], in [5], in [6] and in [7] was > 100 µM throughout. Besides, the TGI in assay [8], in assay [9] and in assay [10] was > 100 µM in each case.

For `N#Cc1cc(C#N)c(Cl)nc1N`, the TGI in assay [1], in assay [2], in assay [3], in assay [4], in [6] and in assay [7] was > 10 µM in each case. For the same molecule, the TGI in assay [8], in assay [9] and in assay [10] was > 10 µM in each case.

For the molecule `CC1CC2C3CC(F)C4=CC(=O)C=CC4(C)C3(F)C(O)CC2(C)C1(O)C(=O)COC(=O)C(C)(C)C` (stereo not given), the TGI in [1], in [2], in [3], in [4], in assay [5] and in assay [6] was > 100 µM each time. The TGI in [7] was 76.6 µM; in [8] it was > 100 µM; in [9], > 100 µM; in assay [10], > 100 µM.

`COc1cc(/C(Cl)=C/C=C/C(=O)c2c(C)[n+]([O-])c3ccc(Cl)cc3[n+]2[O-])cc(OC)c1OC`: the GI50 is 3.42 µM in [1]; 6.85 µM in assay [2]; 4.06 µM in assay [3]; 7.35 µM in [4]; 3.68 µM in assay [5]; 6.35 µM in assay [6]. Also, the GI50 was 9.15 µM in [7], 2.12 µM in assay [8], 11.5 µM in assay [9] and 1.62 µM in assay [10]. Further, the TGI was 27.1 µM in [1]; 49.4 µM in [2]; 19.6 µM in assay [3]; > 50 µM in [4]; 40.4 µM in assay [5]; 18.5 µM in assay [6]. The TGI in [7] was 28 µM; in assay [8], 8.98 µM; in assay [9], > 50 µM; in [10] it was > 50 µM.

In the case of `Cc1[nH]ncc1-c1cc2nc(C3CC4CCN3CC4)[nH]c(=O)c2s1` (stereo not given), the GI50 in [1] is 3.28 µM; in assay [2], 4.94 µM; in assay [3], 1.01 µM; in assay [4] it was 2.44 µM; in assay [5], 4.49 µM; in [6], 6.02 µM. In addition, the GI50 in assay [7] is 2.36 µM; in [8], 1.16 µM; in assay [9], 2.44 µM; in [10], 2.36 µM. Besides, the TGI in assay [1] is 17.6 µM; in [2], > 100 µM; in assay [3] it was 9.55 µM; in assay [4], > 100 µM; in assay [5], 83.5 µM; in [6], 74 µM. Also, the TGI in [7] is 5.96 µM; in assay [8], > 100 µM; in [9] it was > 100 µM; in assay [10] it was > 100 µM.

`CCCCCCCCCCCOC(=S)NC(C)C`: the TGI was found to be 31.1 µM in assay [1]; 56.6 µM in assay [2]; 62.8 µM in assay [3]; 31.8 µM in assay [4]; 60.6 µM in [5]; 49.5 µM in assay [6]. The TGI came out at 42.9 µM in assay [7], 31.3 µM in assay [8], 50.7 µM in assay [9] and 61.4 µM in [10].

Turning to `OCCOc1ccc(-c2cc(-c3ccccn3)nc(-c3ccccn3)c2)cc1`, the TGI is 2.66 µM in assay [1]; > 100 µM in assay [2]; 26.1 µM in [3]; > 40.6 µM in assay [4]; 3.91 µM in assay [5]; 17.5 µM in assay [6]. For the same molecule, the TGI was 0.85 µM in [7], > 43.7 µM in assay [8], 3.69 µM in assay [9] and 40.4 µM in assay [10].

Turning to `Cc1ccccc1NC(=S)Nc1ccccn1`, the GI50 in [1], in assay [2], in assay [3], in assay [4], in [5] and in assay [6] was > 100 µM in each case. The GI50 in [7] was 13.9 µM; in [8], > 100 µM; in [9], > 100 µM; in [10], > 100 µM. The TGI in assay [1], in [2], in [3], in [4], in assay [5] and in assay [6] was > 100 µM each time. The TGI in assay [7], in assay [8], in [9] and in assay [10] was > 100 µM in each case.

Take `Cc1ccc(C(=O)O/N=C2/CCCC/C2=C\c2ccccc2)cc1`: the TGI is > 100 µM in assay [1]; 65.3 µM in [2]; > 100 µM in [3]; > 100 µM in [4]; > 100 µM in assay [5]; > 100 µM in assay [6]. Besides, the TGI is > 100 µM in assay [7], 32.7 µM in assay [8], > 100 µM in assay [9] and > 100 µM in [10].

As for `CCOc1ccc(NC(=O)CC2SC(=Nc3ccc(Cl)cc3)NC2=O)cc1` (stereo not given), the TGI in assay [1], in assay [2], in [3], in assay [4], in [5] and in [6] was > 100 µM in each case. The TGI in [7] was > 100 µM; in [9], > 100 µM; in assay [10], 43.5 µM.

In the case of `N#Cc1cccc(N2C(=O)c3c(c(-c4ccccc4)c(-c4ccc(Sc5ccc(-c6c(-c7ccccc7)c7c(c(-c8ccccc8)c6-c6ccccc6)C(=O)N(c6cccc(C#N)c6)C7=O)cc5)cc4)c(-c4ccccc4)c3-c3ccccc3)C2=O)c1`, the TGI was > 100 µM in [1]; > 100 µM in assay [2]; > 100 µM in [4]; > 100 µM in [5]; > 100 µM in assay [6]; 59.2 µM in assay [7]. Moreover, the TGI in [8], in assay [9] and in assay [10] was > 100 µM each time.

Regarding `CCC1(C)NN=c2s/c(=C/c3ccc(OC)cc3)c(=O)n2N1` (stereo not given), the TGI in assay [1], in assay [2], in assay [3], in [5], in [6] and in assay [7] was > 100 µM each time. Moreover, the TGI in assay [8], in [9] and in [10] was > 100 µM each time.

`CC(C)=CCN=C(N)N`: the TGI in assay [1], in [2], in assay [4], in assay [6], in assay [7] and in [8] was > 100 µM throughout. In addition, the TGI in assay [9] and in [10] was > 100 µM in each case.

With `CC1=C(C(=O)NCc2ccccc2)C(c2ccc(C3C(C(=O)NCc4ccccc4)=C(C)NC(C)=C3C(=O)NCc3ccccc3)cc2)C(C(=O)NCc2ccccc2)=C(C)N1`, the TGI in [1] stood at 22.2 µM; in [2], 25.2 µM; in assay [4] it was 39 µM; in [5] it was 24.1 µM; in assay [6], 36.3 µM; in assay [7], 33.4 µM. Further, the TGI is 10.2 µM in assay [8], > 100 µM in assay [9] and > 100 µM in assay [10].

As for `FC(F)(F)C1(Cl)C(c2ccccc2)=C1c1ccccc1`, the TGI in assay [1] was 27 µM; in [2], 28.1 µM; in assay [4] it was 27.8 µM; in assay [5], 25.6 µM; in assay [6], 28.5 µM; in assay [7], 26.6 µM. Besides, the values for the TGI in assay [8], in assay [9] and in assay [10] were 27.4 µM, 30.4 µM and 12.1 µM, respectively.

As for `Nc1ncnc2c1ncn2C1OC(COP(=O)(O)CP(=O)(O)O)C(O)C1O` (stereo not given), the TGI in assay [1], in assay [2], in [3], in assay [4], in assay [5] and in assay [6] was > 100 µM throughout. For the same molecule, the TGI in assay [7], in assay [8] and in assay [10] was > 100 µM in each case.

Turning to `C#CCC[C@@H]1O[C@@]1(C)CC/C=C(\C)CC/C=C/C=O`, the TGI in [1] is 36.6 µM; in assay [3], > 100 µM; in assay [4], > 100 µM; in assay [5] it was 48.3 µM; in assay [6], 48.3 µM; in assay [7] it was > 100 µM. Moreover, the TGI in [9] was > 100 µM; in [10] it was 64.8 µM.

Consider `c1ccc(SC2(Sc3ccccc3)CCCC2)cc1`, for which the TGI in assay [1], in assay [2], in assay [3], in assay [4], in assay [5] and in assay [7] was > 100 µM throughout. Also, the TGI in assay [8], in [9] and in assay [10] was > 100 µM throughout.

Turning to `O=C(O)CN(c1ccccc1)S(=O)(=O)c1ccc(NC(=O)c2ccccc2)cc1`, the TGI in [1], in [2], in assay [3], in assay [4], in assay [5] and in [6] was > 100 µM in each case. Moreover, the TGI in assay [7], in assay [9] and in assay [10] was > 100 µM throughout.

On to `COc1ccc(S(=O)(=O)NC(C)C(=O)O)cc1` (stereo not given), for which the TGI in assay [1], in assay [2], in assay [3], in [4], in assay [5] and in [6] was > 100 µM in each case. The TGI in assay [7], in assay [9] and in [10] was > 100 µM in each case.
